Experimental data: patent US20070197658A1, “Polyamines and their use as antibacterial and sensitizing agents” (priority 2006, published 2007)
“And” between values parts separate entries of the source, which are not always exact repeats. Identical values can stand only once. Counter-ions that a name gives are not always drawn. Like-named read-outs stand apart in the source and are kept apart here. Bridge positions count the residues as written; N and C are the ends. Square brackets hold non-standard residues; d marks the D form. Peptide text beside a SMILES is read from it. Dab = NCC[C@H](N)C(=O)O

Assays:
[1] = test system: E. coli ML-35p (OM) / E. coli ML-35 (IM); type: cell-based, Escherichia coli; details: nitrocefin and ONPG hydrolysis
Method: OM permeabilizing activity was determined using E. coli ML-35p (parent i^− z^+ y^− ATCC 43827 transformed with pBR322 vector encoding periplasmic β-lactamase); the leakage of periplasmic β-lactamase activity was quantified using nitrocefin as a chromogenic substrate. IM permeabilizing activity was determined using E. coli ML-35 using o-nitrophenyl-β-D-galactopyranoside as the substrate to determine the β-galactosidase activity. In all experiments, PMB, PMBN, and melittin were used as reference compounds.
Nitrocefin (Calbiochem, San Diego, Calif.) was used for the determination of periplasmic β-lactamase activity since PADAC has been reported to be frequently insensitive to β-lactamase activity in clinically relevant strains of Staphylococcus. […] Harvested mid-log phase cultures of E. coli ML-35p (OD600nm adjusted to 0.5 AU) grown in trypticase soy broth were washed thrice with normal saline (0.9%). Nitrocefin was added to a final concentration of 50 μg/ml to the washed bacterial suspension, which was then added to the serially diluted compounds in a 384-well microtiter plate as described earlier. […] After various times of incubation at 37° C., β-lactamase activity was measured spectrophotometrically at 486 nm using an automated Spectramax M2 instrument (Molecular Devices, Sunnyvale, Calif.).
The IM permeability was measured using o-nitrophenyl-β-D-galactopyranoside (“ONPG”; Sigma, St. Louis, Mo.) as the substrate to determine the β-galactosidase activity. […] Washed cultures of E coli ML-35 mixed with 1.5 mM of ONPG in normal saline (0.9%) were added to serially diluted compounds in a 384-well microtiter plate. PMBN and melittin were used as the controls. The production of o-nitrophenol was quantified absorptimetrically at 420 nm after an incubation period of 1 hour at 37° C.
OM and IM permeability were determined respectively from dose-response curves of nitrocefin and ONPG hydrolysis rates as described in Lehrer et al., Concurrent assessment of inner and outer membrane permeabilization and bacteriolysis in E. coli by multiple-wavelength spectrophotometry, J. Immunol.

E. coli ATCC 9637 [2] = assay: microbe, parasite or virus in culture
Method: (§1) An equal volume of a suspension of either E. coli ATCC 9637 (FIG. 6A) or S. aureus ATCC 13709 (FIG. 6B) in 2× Mueller-Hinton broth was added using an automated liquid dispensing system to a 384 well plate, and bacterial growth was measured by absorptimetry as described in Materials and Methods.
(§2) In this example, E. coli strain 9637 and S. aureus strain 13709 were procured from ATCC (Manassas, Va.). For IM permeability assays, E. coli ML-35 (ATCC 43827), a lactose permease-deficient strain with constitutive cytoplasmic β-galactosidase activity was used (26). Calcium chloride transformation of E. coli ML-35 was performed using the plasmid vector pBR322 (6), encoding tetracycline and ampicillin resistance genes (Promega, Madison, Wis.). The transformed strain, E. coli ML-35p, selected by ampicillin resistance, was utilized for the OM permeabilization assay. E. coli ML-35p was maintained on trypticase soy agar plates with 50 μg/ml of ampicillin.
(§3) Minimum inhibitory concentrations of the acylpolyamines were determined by broth microdilution method (1) as per NCCLS guidelines. Mid-log phase Mueller-Hinton broth (MHB; non-cation supplemented) cultures of organisms (40 μl; OD600nm adjusted to 0.5 AU, and diluted ten-fold) were added to equal volumes of two-fold serially diluted acylpolyamines in a 384-well microtiter plate with the help of a Biotek Precision 2000 automated microplate pipetting system. The MICs of rifampicin, polymyxin B (PMB), polymyxin B nonapeptide (PMBN), naphthylacetyl spermine trihydrochloride and methoctramine tetrahydrochloride (Sigma, St. Louis, Mo.) were included as reference compounds for comparison of activity. The microtiter plates were sealed and incubated overnight at 37° C. The plates were read at an absorbance of 600 nm. The lowest concentration of an agent inhibiting growth of the organisms was recorded as the MIC.

S. aureus ATCC 13709 = assay: microbe, parasite or virus in culture
Method: as §1, §2, §3

human erythrocytes = details: for hemolytic activity in the presence of human serum albumin: physiological concentrations (~650 μM) of human serum albumin
Method: Melittin was used as a positive control.
Erythrocyte damage was measured using two different techniques. In the first, hemolysis was quantified using extremely diluted, aged human whole blood such that the effects of the compounds binding to plasma proteins would be negligible, and the hemolytic activity would be magnified because of increased osmotic fragility of the erythrocytes as a consequence of depleted Na^+ K^+ ATPase activity. […] Dilute erythrocyte suspensions were prepared by diluting one-week-old whole blood obtained by venipuncture from healthy human volunteers 1:1000 in isotonic (0.9 g/100 ml) saline solution to which was added graded doses of compound. […] The samples were therefore examined with a Beckman-Coulter Vi-Cell™ Cell Viability Analyzer (Beckman-Coulter, Hialeah, Fla.). This instrument implements an automated intravital trypan blue exclusion method using real-time automated video microscopy. Measurement parameters for erythrocytes were gated appropriately on control erythrocytes to specify thresholds of cell recognition and viability. Data on total number of cells/ml and viable cells/ml were collected through 50 captured images per sample with a counting accuracy of ±3%. In order to examine the effect of plasma proteins on the surface activity, some of the experiments were repeated in the presence of near-physiological concentrations of human serum albumin. […] The second method, consequently, was designed to examine the effects of the compounds on whole blood. […] After incubation at 37° C. for 30 min, the plates were centrifuged at 3000 RPM for 10 min, 80 μl of supernatants transferred to a fresh plate, and the amount of free hemoglobin released into the supernatant was quantified using absorptimetry at 570 nm.
The hemolysis induced by the compounds was quantified using an extremely dilute suspension of washed, aged human erythrocytes under protein-free conditions (isotonic saline). […]

E. coli ATCC 9637 [3] = assay: Effect of acylpolyamines on MIC of rifampicin (sensitization); type: cell-based, Escherichia coli; details: for Sensitization to Rifampin: E. coli strain 9637 preincubated with 10 μM of compound, MIC of rifampicin
Method: E. coli ATCC 9637 was seeded in MH broth in chequerboard format in a 384-well plate containing a constant concentration of compound and varying doses of rifampicin. Bacterial growth was monitored by turbidimetry at 600 nm. PMBN and melittin were used as positive controls. Wells containing no test-compound served as negative control. […] Fold sensitization was calculated as MICRifampicin alone/MICRifampicin+10μM Compound.
Perturbation of the outer membrane permeability barrier greatly sensitizes Gram negative organisms to otherwise impermeable hydrophobic solutes, rifampicin being a classic example To determine the effect of acylpolyamines on the MIC of hydrophobic antibiotic, rifampicin, E. coli strain 9637 was used. Overnight cultures of E. coli grown in MHB preincubated with 10 μM of acylpolyamines were added to serially diluted rifampicin in a 384-well microtiter plate. After incubation at 37° C. overnight, the MIC was determined. Controls included PMBN and melittin (positive) and rifampicin alone (negative). All experiments were run in triplicate.

CF-1 mice = details: preliminary; for subacute toxicity: 100 μg/mouse, subcutaneously, for 15 days; for acute toxicity: up to 1 mg/mouse, one dose subcutaneously
Method: Detailed biophysical studies on the characterization of the binding site on albumin, stoichiometry, and dependence of binding affinity on mono-versus bis-acylation and acyl chain length will be published elsewhere.
Clinical signs of acute toxicity were monitored for 48 h following a single injection. In subacute studies, 100 μg of 4e was injected daily in the subcutaneous tissue of the flank region, the sites being alternated every day, for a duration of 15 days. The animals were monitored daily for signs of local irritation, weight loss, and food consumption.

E. coli W3110 = details: cited from earlier work
[4] = 500 μM in 50 mM Tris buffer, pH 7.4, 5% DMSO, 25° C.
Method: Charged, amphipathic molecules are surface-active, and can be cytolytic to mammalian cells. […] Samples were at 500 μM concentration in 50 mM Tris buffer, pH 7.4 containing 5% DMSO. The instrument was calibrated with water at 25° C. (72 mN/m) and surface tension values were recorded over a range of bubble surface ages from 100 to 1500 ms at 25° C.

[5] = E. coli ATCC 9637, Mueller-Hinton broth, overnight 37° C.
[6] = S. aureus ATCC 13709, Mueller-Hinton broth, overnight 37° C.
[7] = 10 μM compound, E. coli ATCC 9637

## CCCCCCCCCCCCCCCCCCC(=O)NCCCNCCCNCCCCNCCCN.O=C(O)C(F)(F)F.O=C(O)C(F)(F)F.O=C(O)C(F)(F)F.O=C(O)C(F)(F)F [Compound 4g]
[1]
  membrane-permeabilizing activity (OM and IM): highly membrane-active
E. coli ATCC 9637 [2]; [5]
  MIC: 62.5 μM and 62.2 μg/ml
S. aureus ATCC 13709; [6]
  MIC: 15.6 μM and 15.5 μg/ml
Human erythrocytes
  hemolytic activity in the presence of human serum albumin: completely abrogated

## CCCCCCCCCCCCC(=O)NCCCNCCCNCCCCNCCCN.O=C(O)C(F)(F)F.O=C(O)C(F)(F)F.O=C(O)C(F)(F)F.O=C(O)C(F)(F)F [Compound 4d]
E. coli ATCC 9637 [3]
  Sensitization to Rifampin: 62.5
E. coli ATCC 9637 [2]; [5]
  MIC: 31.25 μM and 28.9 μg/ml
S. aureus ATCC 13709; [6]
  MIC: 15.6 μM and 14.4 μg/ml
CF-1 mice
  subacute toxicity: not revealed any detectable toxicity
  acute toxicity: not revealed any detectable toxicity

## Cl.Cl.Cl.NCCCNCCCCNCCCNC(=O)Cc1cccc2ccccc12 [Naphthylacetylspermine, naphthylacetyl spermine trihydrochloride, reference compound]
E. coli W3110; trihydrochloride
  MIC reported by Yasuda et al.: > 267 μM and > 128 mg/l
E. coli ATCC 9637 [2]; E. coli ATCC 9637, Mueller-Hinton broth, overnight 37° C., listed as naphthylacetylspermine, trihydrochloride
  MIC: 1250 µM
E. coli ATCC 9637 [2]; E. coli ATCC 9637, Mueller-Hinton broth, overnight 37° C., trihydrochloride
  MIC: 1250 μM and 599.8 μg/ml
S. aureus ATCC 13709; S. aureus ATCC 13709, Mueller-Hinton broth, overnight 37° C., trihydrochloride
  MIC: 1250 μM and 599.8 μg/ml

## CO[C@H]1/C=C/O[C@@]2(C)Oc3c(C)c(O)c4c(O)c(c(/C=N/N5CCN(C)CC5)c(O)c4c3C2=O)NC(=O)/C(C)=C\C=C\[C@H](C)[C@H](O)[C@@H](C)[C@@H](O)[C@@H](C)[C@H](OC(C)=O)[C@@H]1C [rifampicin, reference compound]
E. coli ATCC 9637 [3]; Escherichia coli, ATCC9637, E. coli ATCC 9637, no test compound, read-out: MIC of rifampicin alone
  MIC: 15.6 mg/L

## CCCCCCCCC(=O)NCCCNCCCNCCCCNCCCN.O=C(O)C(F)(F)F.O=C(O)C(F)(F)F.O=C(O)C(F)(F)F.O=C(O)C(F)(F)F [Compound 4b]
E. coli ATCC 9637 [3]
  Sensitization to Rifampin: 7.81
E. coli ATCC 9637 [2]; [5]
  MIC: 62.5 μM and 53.4 μg/ml
S. aureus ATCC 13709; [6]
  MIC: 125 μM and 106.96 μg/ml

## CCCCCCCCCCCCCCCCC(=O)NCCCNCCCNCCCCNCCCNCCCNC(=O)CCCCCCCCCCCCCCCC.O=C(O)C(F)(F)F.O=C(O)C(F)(F)F.O=C(O)C(F)(F)F.O=C(O)C(F)(F)F [Compound 8e]
E. coli ATCC 9637 [3]
  Sensitization to Rifampin: 15.6
E. coli ATCC 9637 [2]; [5]
  MIC: 62.5 μM and 79.4 μg/ml
S. aureus ATCC 13709; [6]
  MIC: 250 μM and 319.3 μg/ml

## CC(=O)NCCCNCCCNCCCCNCCCN.O=C(O)C(F)(F)F.O=C(O)C(F)(F)F.O=C(O)C(F)(F)F.O=C(O)C(F)(F)F [Compound 4a]
E. coli ATCC 9637 [3]
  Sensitization to Rifampin: 31.25
E. coli ATCC 9637 [2]; [5]
  MIC: 62.5 μM and 47.3 μg/ml

## CCCCCCCCCCCCCCC(=O)NCCCNCCCNCCCCNCCCNCCCNC(=O)CCCCCCCCCCCCCC.O=C(O)C(F)(F)F.O=C(O)C(F)(F)F.O=C(O)C(F)(F)F.O=C(O)C(F)(F)F [Compound 8d]
E. coli ATCC 9637 [3]
  Sensitization to Rifampin: 15.6
E. coli ATCC 9637 [2]; [5]
  MIC: 62.5 μM and 76.3 μg/ml
S. aureus ATCC 13709; [6]
  MIC: 250 μM and 305.3 μg/ml

## CCCCCCCCCCCCCCCCCCC(=O)NCCCNCCCNCCCCNCCCNCCCNC(=O)CCCCCCCCCCCCCCCCCC.O=C(O)C(F)(F)F.O=C(O)C(F)(F)F.O=C(O)C(F)(F)F.O=C(O)C(F)(F)F [Compound 8f]
E. coli ATCC 9637 [3]
  Sensitization to Rifampin: 15.6
E. coli ATCC 9637 [2]; [5]
  MIC: 62.5 μM and 83.3 μg/ml
S. aureus ATCC 13709; [6]
  MIC: 125 μM and 166.7 μg/ml

## CCCCCCCCCC(=O)NCCCNCCCNCCCCNCCCN.O=C(O)C(F)(F)F.O=C(O)C(F)(F)F.O=C(O)C(F)(F)F.O=C(O)C(F)(F)F [Compound 4c]
E. coli ATCC 9637 [3]
  Sensitization to Rifampin: 7.81
E. coli ATCC 9637 [2]; [5]
  MIC: 62.5 μM and 54.3 μg/ml
S. aureus ATCC 13709; [6]
  MIC: 62.5 μM and 54.3 μg/ml

## CCCCCCCCCCCCCCCCC(=O)NCCCNCCCNCCCCNCCCN.O=C(O)C(F)(F)F.O=C(O)C(F)(F)F.O=C(O)C(F)(F)F.O=C(O)C(F)(F)F [Compound 4f]
[1]
  membrane-permeabilizing activity (OM and IM): highly membrane-active
E. coli ATCC 9637 [3]
  Sensitization to Rifampin: 15.6
E. coli ATCC 9637 [2]; [5]
  MIC: 62.5 μM and 60.4 μg/ml
S. aureus ATCC 13709; [6]
  MIC: 15.6 μM and 15.1 μg/ml
Human erythrocytes; at 1-5 μM, dilute aged human erythrocytes, protein-free isotonic saline
  hemolysis: 100%
Human erythrocytes
  hemolytic activity in the presence of human serum albumin: completely abrogated

## CC(C)C[C@@H]1NC(=O)[C@@H](Cc2ccccc2)NC(=O)[C@H](CCN)NC(=O)[C@@H](NC(=O)[C@H](CCN)NC(=O)[C@@H](N)[C@@H](C)O)CCNC(=O)[C@H]([C@@H](C)O)NC(=O)[C@H](CCN)NC(=O)[C@H](CCN)NC1=O [PMBN, polymyxin B nonapeptide, reference compound] (H-T[Dab][Dab][Dab][dF]L[Dab][Dab]T; lactam 3-C)
E. coli ATCC 9637 [3]; [7]
  MIC of rifampicin in the presence of compound: 0.976 mg/L
  sensitization activity (MIC rifampicin alone / MIC rifampicin + 10 μM compound): 16 fold
E. coli ATCC 9637 [2]; ATCC 9637
  MIC: 250; (240.7) μM
E. coli ATCC 9637 [2]; [5]
  MIC: 250; (240.7) μg/ml
S. aureus ATCC 13709; ATCC 13709
  MIC: 500; (481.5) μM
S. aureus ATCC 13709; [6]
  MIC: 500; (481.5) μg/ml

## CCCCCCCCC(=O)NCCCNCCCNCCCCNCCCNCCCNC(=O)CCCCCCCC.O=C(O)C(F)(F)F.O=C(O)C(F)(F)F.O=C(O)C(F)(F)F.O=C(O)C(F)(F)F [Compound 8a]
[4]
  surface activity: considerably surface active
E. coli ATCC 9637 [3]; [7]
  sensitization activity (MIC rifampicin alone / MIC rifampicin + 10 μM compound): 4096 fold
E. coli ATCC 9637 [3]
  Sensitization to Rifampin: 0.00381
E. coli ATCC 9637 [2]; [5]
  MIC: 31.25 μM and 32.9 μg/ml
S. aureus ATCC 13709; [6]
  MIC: 15.6 μM and 16.4 μg/ml
CF-1 mice
  subacute toxicity: not revealed any detectable toxicity
  acute toxicity: not revealed any detectable toxicity

## COc1ccccc1CNCCCCCCNCCCCCCCCNCCCCCCNCc1ccccc1OC [Methoctramine, methoctramine tetrahydrochloride, reference compound]
E. coli W3110
  MIC reported by Yasuda et al.: 22 μM and 16 mg/l
E. coli ATCC 9637 [2]; [5]
  MIC: 312.5 µM
E. coli ATCC 9637 [2]; Escherichia coli, ATCC9637
  MIC: 312 µM and 228 µg/mL
S. aureus ATCC 13709; Staphylococcus aureus, ATCC13709
  MIC: 156 µM and 114 µg/mL

## Polymyxin B [PMB, reference compound]
E. coli ATCC 9637 [3]
  Sensitization to Rifampin: 0.2
E. coli ATCC 9637 [2]; [5]
  MIC: 3.9 μM and 5.4 μg/ml
S. aureus ATCC 13709; [6]
  MIC: 125 μM and 173.2 μg/ml

## CCCCCCCCCC(=O)NCCCNCCCNCCCCNCCCNCCCNC(=O)CCCCCCCCC.O=C(O)C(F)(F)F.O=C(O)C(F)(F)F.O=C(O)C(F)(F)F.O=C(O)C(F)(F)F [Compound 8b]
[4]
  surface activity: considerably surface active
E. coli ATCC 9637 [3]; [7]
  sensitization activity (MIC rifampicin alone / MIC rifampicin + 10 μM compound): 4096 fold
E. coli ATCC 9637 [3]
  Sensitization to Rifampin: 0.00381
E. coli ATCC 9637 [2]; E. coli, HSA 4.5 g/100 ml, 677 μM
  MIC in the presence of human serum albumin: 125 µM
E. coli ATCC 9637 [2]; E. coli, with vs without HSA 4.5 g/100 ml
  attenuation of MIC by human serum albumin: four-fold
S. aureus ATCC 13709; S. aureus, HSA 4.5 g/100 ml, 677 μM
  MIC in the presence of human serum albumin: 15.6 µM
S. aureus ATCC 13709; S. aureus, with vs without HSA 4.5 g/100 ml
  attenuation of MIC by human serum albumin: four-fold
